Key:
HT-29 [1] = test: Compound was tested for its antitumor activity against HT-29 colon carcinoma cell line; assay type: functional, cell-based; conditions: Homo sapiens
SK-OV-3 = test: Compound was tested for its antitumor activity against SKOV3 human ovarian cancer cell line; assay type: functional, cell-based
[2] = Selectivity ratio was determined for P-170 glycoprotein mediated multidrug resistant variant SKVLB to the ovarian cancer cell line SK-OV3.; assay type: functional, Cancer cell lines
HT-29 [3] = test: Compound was tested for its antitumor activity against HT-29 colon carcinoma cell line; No activity.; assay type: functional, cell-based, Homo sapiens

`COC1OC(C(=O)NCCN2CCCC2)=CC2=C1C(=O)c1ccccc1C2=O` (centres undefined) gave an IC50 (HT-29 [1]) of 170 nM, an IC50 (SK-OV-3) of 50 nM and a Ratio [2] of 10.

For `O=C(NCCCBr)C1=CC2=C(CO1)C(=O)c1ccccc1C2=O`, the IC50 (HT-29 [1]) was 2760 nM, the IC50 (SK-OV-3) was 1060 nM and the Ratio [2] was 2.6.

For `CN(C)CCCNC(=O)C1=CC2=C(C(=O)c3ccccc3C2=O)C(O)O1` (centres undefined), the IC50 (HT-29 [1]) was 6300 nM, the IC50 (SK-OV-3) was 3700 nM and the Ratio [2] was 6.3.

With `COC1OC(C(=O)NCCCCN(C)C)=CC2=C1C(=O)c1ccccc1C2=O` (centres undefined) the IC50 (HT-29 [3]) was “Not Active”, the IC50 (SK-OV-3) was 140 nM and the Ratio [2] was 4.1.

Work on `COC1OC(C(=O)NCCCNC(=O)C2=CC3=C(C(=O)c4ccccc4C3=O)C(OC)O2)=CC2=C1C(=O)c1ccccc1C2=O` (centres undefined) yielded an IC50 (HT-29 [1]) of 150 nM, an IC50 (SK-OV-3) of 14 nM and a Ratio [2] of 111.

With `COC1OC(C(=O)NCCCN(C)C)=CC2=C1C(=O)c1ccccc1C2=O` (centres undefined) the IC50 (HT-29 [1]) was 70 nM, the IC50 (SK-OV-3) was 7 nM and the Ratio [2] was 9.3.

Compound `COC1OC(C(=O)NCC[N+](C)(C)C)=CC2=C1C(=O)c1ccccc1C2=O` (centres undefined) has an IC50 (HT-29 [1]) of 32300 nM, an IC50 (SK-OV-3) of 19500 nM and a Ratio [2] of 1.5.

In the case of `CCCC1OC(C(=O)NCCCN(C)C)=CC2=C1C(=O)c1ccccc1C2=O` (centres undefined), the IC50 (HT-29 [1]) is reported as 390 nM, the IC50 (SK-OV-3) is reported as 280 nM and the Ratio [2] is reported as 2.

For `CN(C)CCCNC(=O)C1=CC2=C(CO1)C(=O)c1ccccc1C2=O`, the IC50 (HT-29 [3]) was “Not Active”, the IC50 (SK-OV-3) was 220 nM and the Ratio [2] was 5.4.

`COC1OC(C(=O)N(C)CCN(C)C)=CC2=C1C(=O)c1ccccc1C2=O` (centres undefined) gave an IC50 (HT-29 [1]) of 1180 nM, an IC50 (SK-OV-3) of 110 nM and a Ratio [2] of 5.4.

With `COC1OC(C(=O)NCCCO)=CC2=C1C(=O)c1ccccc1C2=O` (centres undefined) the IC50 (HT-29 [1]) was 1540 nM, the IC50 (SK-OV-3) was 60 nM and the Ratio [2] was 6.

In the case of `COC1OC(C(=O)NCCC[S+](C)C)=CC2=C1C(=O)c1ccccc1C2=O.[Cl-]` (centres undefined), the IC50 (HT-29 [3]) is reported as “Not Active”, the IC50 (SK-OV-3) is reported as 1300 nM and the Ratio [2] is reported as 13.

With `COc1cccc2c1C(=O)c1c(O)c3c(c(O)c1C2=O)C[C@@](O)(C(=O)CO)C[C@@H]3O[C@H]1C[C@H](N)[C@H](O)[C@H](C)O1` [DOXORUBICIN] the IC50 (HT-29 [1]) was 340 nM, the IC50 (SK-OV-3) was 20 nM and the Ratio [2] was 300.

— ChEMBL document CHEMBL1130849, “Novel 1,3-disubstituted-5,10-dihydro-5,10-dioxo-1H-benzo[g] isochromene-3 carboxamides as potent antitumor agents” (Bioorg Med Chem Lett, 1998)
